The source of these data is patent US20170114346A1, “GENE EXPRESSION SYSTEM AND […]” (priority 2014, published 2017).

This test concerns 6-OHDA lesioned rats (striatum). In words: Experiment 1 online microdialysis in anesthetized rats (baseline, NSD-1015, NSD+TMP). The class given is in vivo, rat. The procedure:
The second microdialysis protocol in Experiment 1 (identical microdialysis methods and protocols were used in the pilot study) was performed in anaesthetized animals was performed in TH+DD-GCH1 treated animals that received oral TMP administration in their drinking water at least 2 weeks prior sampling; either 0.5 mg/ml (n=4) or 2 mg/ml (n=5) (same TMP emulsion that was administered to the animals followed with behavior tests). In addition, this experiment also included animals from the TH+GCH1 (n=3), Les-Sham (n=2) and intact control (n=3) groups. Probe placement was calculated to position the membrane of the probe in the center of the transduction area in striatum, which corresponded to the coordinates: AP: +0.5 mm; ML: −3.7 mm and DV: −5.7 mm with the tooth bar set to −2.4 mm. […] Samples were analyzed readily as described for the first microdialysis experiment. After the last sample was collected the animal was terminated and brain tissue taken for histology.

Regarding `COc1cc(Cc2cnc(N)nc2N)cc(OC)c1OC` [TMP, trimethoprim], the “biochemical reconstitution with oral TMP” value (0.5 and 2.0 mg/ml TMP in drinking water, TH+DD-GCH1 treated rats) is “both were effective in reaching a similar biochemical reconstitution”. For the same molecule, the “DOPA levels after addition of TMP to the ringer solution” value (2E-5 M TMP lactate plus NSD-1015 via probe for 2 h, after 2 weeks oral TMP) was “did not further increase the DOPA levels”.
